Experimental data as given in patent publication US20230272368A1, “PRODUCTS AND METHODS FOR DETECTION OF VIRAL NUCLEIC ACID” (priority 2020, published 2023).

Conditions: compared with sodium dodecyl sulfate (SDS)

sodium lauroyl sarcosinate [SLS]
solubility in the compositions: detergent to be substantially more soluble in our
